Series [1] concerns haloperidol-induced catalepsy. Nature of the series: catalepsy test for antiparkinsonian effects (antagonism of haloperidol-induced catalepsy). It counts as in vivo. The following applies: Rattus norvegicus; rats, test substance perorally 1 h before haloperidol 0.25 mg/kg subcutaneously; read-out: Minimum effective dose (peroral administration).
Source text: The principle behind the haloperidol catalepsy test relates to the fact that the drug haloperidol (Serenase®) induces a receptor blockade of post synaptic dopamine receptors within the dopamine innervated corpus striatum of the rat brain. Following the blockade of active dopamine neurotransmission of the striatum a state of rigid immobility is induced, during which the rat can be placed in various totally abnormal immobile postures involving the forelegs and the whole body. […] The immobile posture effect induced by haloperidol closely resembles the state of Parkinson's disease in humans, which is due to a deficit of the dopaminergic innervation of the striatal complex (nucleus caudatus, putamen).
The day before testing, the rats weighing 200-250 g are housed 2 and 2 together in standard macrolon cages. […] The testing for the immobile catalepsy syndrome includes 4 tests performed in the following consecutive order: • 1) a vertical wire netting (40x40 cm high).The meshes (openings) of the nettings are approximately 1×2cm. • 2) a horizontal bar 9 cm above the floor • 3) a 9 cm high block (bar) • 4) a 3 cm high block (cork)
The rats were scored for the immobile cataleptic syndrome every 15 min in all 4 tests starting 15 min after the haloperidol injection. The intensity of catalepsy was tested during 10 sec in all tests and evaluated according to a criteria of 10 sec of total immobility for a score of 2.
The rat was placed in the middle of the vertical wire netting, then on the horizontal bar in an extended position with support by both the forelegs on the bar. The rats were then tested, whether or not they were willing to sit with the left or right forelegs placed first on the 9 and then on the 3 cm block for a duration of 10 sec. The maximum score for all 4 tests is thus a total of 8.
The target in series [2] is T1, reuptake of dopamine in synaptosomes of rat forebrain (Rattus norvegicus, UniProt P23977).
T1 construct: from tissue; host or cells: whole forebrain of male Wistar rats (crude synaptosomal supernatant)
Nature of the series: inhibition of reuptake of dopamine (3H-dopamine) in synaptosomes. The class given is biochemical.
Procedure: Fresh whole forebrain (at 0-4°C) from male Wistar rats (150-200 g) is homogenized in a glass homogenizer with a Teflon pestle in 20 x volumes 0.32M sucrose. The homogenate is centrifuged at 1000 x g (∼ 2900 rpm) for 10 min. The pellet is discarded and the supernatant is used for uptake assays. […] The samples are thoroughly mixed and incubated 10 min at 37°C followed by 2 min at 0°C. After incubation the samples are poured directly onto Whatman GF/C glass fibre filters under suction and immediately washed with 2 x 5 ml ice-cold 0.9% saline (NaCI) buffer. To the filter is added 3 ml of scintillation fluid, and the amount of radioactivity on the filters is determined by conventional liquid scintillation counting.

Series [3] concerns abnormal stereotyped behaviour. Nature of the series: abnormal stereotyped behaviour, high intensity stereotypy (side effect profile). It counts as in vivo, rat. The following applies: rats. An excerpt:
Backward locomotion may occasionally be observed.

Series [4] deals with excitatory locomotor and rearing responses. Nature of the series: behavioural excitatory locomotor and rearing responses (side effect profile). The following applies: for Activity: locomotor and rearing, maximum peak effect, rats. It counts as in vivo, rat.
Procedure: Male SPF wistar rats weighing 200-250g were used for the gross behavioural studies. All rats were transferred the day before the experiments to individual cages made of wire netting (floor area 21 x 27 cm, height 16 cm) at a room temperature of 21-23° C. […] The behavioural elements here classified as rearing (i.e. standing up on the hindlegs) and locomotor activities (i.e. forward running activities) were registered, and the maximum peak effects were classified according to the following rating scale: • 0 = non-existent or very infrequent • + = weak and infrequent • ++ = moderate in intensity and frequency • +++ = very strong, continuous and intense
The degree of locomotor activity was also tested and measured quantitatively in photocell activity cages. For the measurement of this locomotor activity 100 g female rats are used.
Series [5] has as its system dopamine releasing properties. Nature of the series: dopamine releasing properties.

The structures appear in SMILES notation.

One may read the IC50 as the concentration needed to halve the response being measured. A low value points to greater potency.

T1 sequence (P23977 whole entry): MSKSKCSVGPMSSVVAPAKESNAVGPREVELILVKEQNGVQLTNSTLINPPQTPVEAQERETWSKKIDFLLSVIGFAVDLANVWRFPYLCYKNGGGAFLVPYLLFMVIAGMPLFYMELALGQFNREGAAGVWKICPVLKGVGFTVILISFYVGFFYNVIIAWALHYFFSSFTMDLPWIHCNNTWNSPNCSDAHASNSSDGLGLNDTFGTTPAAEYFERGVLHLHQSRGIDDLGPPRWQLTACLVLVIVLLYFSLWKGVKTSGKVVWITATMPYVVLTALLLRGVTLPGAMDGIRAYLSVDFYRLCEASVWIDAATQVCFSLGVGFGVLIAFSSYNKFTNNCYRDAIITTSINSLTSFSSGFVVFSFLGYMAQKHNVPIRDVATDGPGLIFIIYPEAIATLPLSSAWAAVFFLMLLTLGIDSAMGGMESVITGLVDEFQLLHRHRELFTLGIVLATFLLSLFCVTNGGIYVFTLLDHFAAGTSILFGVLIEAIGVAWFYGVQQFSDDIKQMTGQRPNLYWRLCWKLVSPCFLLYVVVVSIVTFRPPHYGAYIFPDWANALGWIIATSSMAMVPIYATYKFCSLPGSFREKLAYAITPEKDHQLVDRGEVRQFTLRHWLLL

`CN1[C@H]2CC[C@@H]1[C@H](c1nc(-c3ccccn3)no1)[C@@H](c1ccc(Cl)c(Cl)c1)C2` [(1R,2R,3S)-2-(3-(2-Pyridyl)-1,2,4-oxadiazol-5-yl)-3-(3,4-dichlorophenyl)-tropane]: the minimal effective dose in series [1] was over 1 mg/kg. Further, the IC50 in series [2] came out at 115 nM. Also, the Activity result in series [3] (50 mg/kg i.p.) is recorded as “+”; in series [4] (10 mg/kg i.p.) it was 0.
On to `CN1[C@H]2CC[C@@H]1[C@H](c1nc(-c3cccs3)no1)[C@@H](c1ccc(Cl)c(Cl)c1)C2` [(1R,2R,3S)-2-(3-(2-Thienyl)-1,2,4-oxadiazol-5-yl)-3-(3,4-dichlorophenyl)-tropane], for which the minimal effective dose in series [1] was over 1 mg/kg. The compound also showed an IC50 in series [2] of 200 nM. The Activity in series [3] (50 mg/kg i.p.) and in series [4] (50 mg/kg i.p.) was 0 throughout.
Consider `CN1[C@H]2CC[C@@H]1[C@H](c1nc(-c3ccncc3)no1)[C@@H](c1ccc(Cl)c(Cl)c1)C2` [(1R,2R,3S)-2-(3-(4-Pyridyl)-1,2,4-oxadiazol-5-yl)-3-(3,4-dichlorophenyl)-tropane], for which the minimal effective dose in series [1] turned out to be 0.25 mg/kg. In series [2], the half-inhibitory concentration (IC50) came out at 69 nM. Moreover, the Activity entry in series [3] (25 mg/kg i.p.) is “++”; in series [3] (100 mg/kg p.o.), “+”; in series [4] (10 mg/kg i.p.), 0; in series [4] (100 mg/kg i.p.), “++”.
Regarding `COC(=O)[C@@H]1[C@@H](c2ccc(F)cc2)C[C@@H]2CC[C@H]1N2C` [trans isomer of Win 35,428, (1R,2R,3S)-2-carbomethoxy-3-(4-fluorophenyl)tropane, reference compound], the dopamine releasing properties result in series [5] is recorded as “essentially free of dopamine releasing properties”. For the same compound, the “side effects as measured by excitatory locomotor activity and rearing responses as well as by abnormal stereotyped behaviour” value in series [4] (at every relevant dosing level tested) is recorded as “essentially or totally devoid of side effects”.

The record behind these values is patent EP0604352B1, “Aryl-substituted heterocyclic compounds” (N[…]/S, priority 1992, dated 1994).
